From patent US7662802B2, “Halide-free glucosamine-acidic drug complexes” (Gluconova, LLC, priority 2004, dated 2010)

Assay: stability of halide-free glucosamine at ambient temperature and/or the atmosphere
Type: physicochemical

SMILES: N[C@H]1C(O)O[C@H](CO)[C@@H](O)[C@@H]1O (some centres unmarked) [halide-free glucosamine, glucosamine]
- hygroscopicity: quite hygroscopic
- stability on storage (subjected to ambient temperature and/or to the atmosphere): will decompose over a period of time
